Source: article PMC3115942 (PLoS ONE, 2011)
Where two headings read alike, the source gives them in different places.

Experiments:
[1] = Compound concentration in mouse liver tissue; assay type: in vivo; conditions: C57BL, 5 mg/kg, 2 hours after IP administration
[2] = system: Gli1 mRNA expression in Sufu−/− MEF; test: Real time PCR of Gli1 mRNA in Sufu−/− MEF; assay type: cell-based, mouse; conditions: 10 µM, 72 hours
Method: (§1) Cells were lysed for RNA extraction after 48 or 72 hours of treatment. Total RNA from cultured cells or tumor tissue was isolated using the GeneElute miniprep kit (Sigma-Aldritch) following the manufacturer^'s instructions. cDNA was synthesized from the isolated mRNA using the Retroscript kit (Ambion), and real-time PCR was carried out using the SYBR Green PCR master mix (Stratagene) according to the manufacturer^'s instructions with an Mx3000P cycler (Stratagene). The relative concentrations of cDNA present in each sample were calculated by the MxPro software (Stratagene), normalized for GAPDH (mRNA from cells) or GUS (mRNA from tumors). For real time PCR primer sequences see Table 6. For the tumor tissue real time PCR, previously described human and mouse specific primers against GUSB, PTCH1 and GLI1were used.

[3] = system: PANC-1 xenograft; test: PANC-1 subcutaneous xenograft in CB17/SCID mice; assay type: in vivo, mouse
Method: as §1
For PANC-1 xenografts, 4–6 week old CB17/SCID mice were injected with 5×10^6 PANC-1 (n = 6 per group) cells in 200 µl PBS subcutaneously on day 1. IP treatment with 50 mg/kg MS-0022 began when median tumor size reached 25 mm^2 (day 27). MS-0022 was pulverized using a pestle, and was mixed into a stable suspension in water containing 1% Tween 80 (Sigma-Aldrich). Mice were treated with MS-0022 or solvent for a period of 30 days after initiation in a 5 day injection 2 day pause scheme, and tumor size was measured throughout using calipers (mm^2). After 30 days the mice were sacrificed and tumors dissected and weighed. The PANC-1 xenograft endpoint was taken two days after the last compound treatment.

[4] = system: THLE-2 cells; test: Passage growth assay, THLE-2; assay type: cell-based; conditions: 5 µM
Method: 20,000 cells were seeded per well in 6 well plates (triplicates) with DMSO or 5 µM MS-0022. Treatment medium was changed on day 3–5, and after 5–7 days the cells were trypsinized, re-suspended in medium and counted, before reseeding cells at 20,000/well for a subsequent passage. The average growth of MS-0022 treated cells was calculated as a percentage of the growth of the DMSO control at the end of each passage. Graphs display average of percent growth with standard deviation bars (n = 3).

[5] = system: GLI1 mRNA in SUIT-2 cells; test: Real time PCR of GLI1 mRNA in SUIT-2; assay type: cell-based, human; conditions: 48 hrs
Method: as §1

[6] = system: 58 kinases; test: Millipore kinase diversity panel (whole panel); assay type: biochemical; conditions: 10 µM
[7] = system: GLI1 mRNA in PC-3 cells; test: Real time PCR of GLI1 mRNA in PC-3; assay type: cell-based, human; conditions: 48 hrs
Method: as §1

[8] = Pharmacokinetics in mouse plasma; assay type: in vivo; conditions: 5 mg/kg; for Cmax / AUC(0-inf) / AUC(0-t) / half-life / k el: mouse plasma; for concentration at 5 min / concentration at 15 min / concentration at 30 min / concentration at 60 min / concentration at 120 min / concentration at 240 min: read-out: blood concentration
Method: For pharmacokinetic (PK) analysis, 5 mg/kg MS-0022 was given by IV, PO and IP administration to 7–8 week old male C57BL mice (mouse musculus), and blood was collected after 5, 15, 30, 60, 120, and 240 min, with n = 3. Animals were sacrificed and blood samples (∼0.5 mL each) were collected from the abdominal aorta into EDTA-containing tubes, centrifuged (2–8°C for ∼10 minutes at ∼10000 xg) and plasma harvested into single tubes for each animal and frozen (∼−70°C). Blood samples were analyzed by ChemDiv^'s bioanalytical department. The maximum concentration (Cmax), total drug exposure (the area under the curve to the last quantifiable concentration (AUClast) and as the AUClast value extrapolated to infinity (AUCinf), calculated as AUCinf = AUClast+C(t)last/Kel, where C(t)last is the last measurable concentration), half-life (T1/2) calculated as ln(2)/Kel and Kel calculated as the slope of the terminal linear portion of the concentration/time curve. The WinNonlin Professional 5.2 software (Pharsight Corp.) was used for the calculation of the PK parameters.

[9] = Dose tolerance in mice; assay type: in vivo
Method: MS-0022 tolerance was tested by daily injections of 200 mg/kg MS-0022 for 5 days in 7–8 week old male C57BL mice. Animal were observed daily for outward signs of toxicity (weight loss, fur ruffling, hunched posture).

[10] = system: PANC-1 cells; test: Soft agar colony formation assay, PANC-1; assay type: cell-based, human; conditions: 21 days
Method: 2000 PANC-1 or SUIT-2 cells were suspended in 1.5 mL growth media containing 0.35% agar (Oxoid), over a 1.5 mL base layer containing 0.5% agar in 6-well plates. The plates were incubated for 14 days (SUIT-2) and 21 days (PANC-1) and then stained for 1 h with 1 ml of 0.02% crystal violet (Sigma-Aldrich), and colonies were counted according to sizes; <0.2 mm (small), 0.2–1 mm (medium) and >1 mm (large). Data represent average numbers with standard deviation bars (n = 3). The experiments have been repeated with similar result.

[11] = system: Gli1 protein in Sufu−/− MEF; test: Gli1 immunostaining of Sufu−/− MEF; assay type: cell-based, mouse; conditions: 20 µM, 48 hours
[12] = QD, IP at 50 mg/kg, 5 day injection/2 day pause, end of treatment, vs control solvent

SMILES: Cc1cccn2cc(-c3ccc(NC(=O)c4ccccc4Br)cc3)nc12 [MS-0022, 2-bromo-N-(4-(8-methylimidazo[1,2-a]pyridin-2-yl)phenyl)benzamide]
- concentration at 2 h [1]: 244 ng/g
- reduction of relative Gli1 mRNA levels in Sufu−/− MEFs [2]: 50%
- reduction in tumor volume, PANC-1 xenograft [3, 12]: 38%
- reduction in tumor weight, PANC-1 xenograft [3, 12]: 33%
- human (tumor) or mouse (stroma) Ptch1 or Gli1 mRNA levels in PANC-1 tumors ([3]; endpoint of the experiment, 50 mg/kg IP): no statistically relevant difference
- growth by the second passage, THLE-2 [4]: not affected
- GLI1 mRNA levels, SUIT-2 [5]: reduced GLI1 mRNA levels
- inhibition of kinases of the diversity panel (in words) [6]: did not significantly inhibit
- GLI1 mRNA levels, PC-3 [7]: reduced GLI1 mRNA levels
- Cmax ([8]; male, C57BL, mouse, plasma, ip, IP, read-out: Cmax): 378 ng/mL
- Cmax ([8]; male, C57BL, mouse, plasma, iv, IV, read-out: Cmax): 934 ng/mL
- Cmax ([8]; male, C57BL, mouse, plasma, po, PO, read-out: Cmax): 912 ng/mL
- concentration at 5 min ([8]; male, C57BL, mouse, plasma, IP): 30 ng/mL
- concentration at 15 min ([8]; male, C57BL, mouse, plasma, IP): 261 ng/mL
- concentration at 30 min ([8]; male, C57BL, mouse, plasma, IP): 378 ng/mL
- concentration at 60 min ([8]; male, C57BL, mouse, plasma, IP): 158 ng/mL
- concentration at 120 min ([8]; male, C57BL, mouse, plasma, IP): 56 ng/mL
- concentration at 240 min ([8]; male, C57BL, mouse, plasma, IP): 15 ng/mL
- concentration at 5 min ([8]; male, C57BL, mouse, plasma, IV): 934 ng/mL
- concentration at 15 min ([8]; male, C57BL, mouse, plasma, IV): 712 ng/mL
- concentration at 30 min ([8]; male, C57BL, mouse, plasma, IV): 626 ng/mL
- concentration at 60 min ([8]; male, C57BL, mouse, plasma, IV): 620 ng/mL
- concentration at 120 min ([8]; male, C57BL, mouse, plasma, IV): 253 ng/mL
- concentration at 240 min ([8]; male, C57BL, mouse, plasma, IV): 73 ng/mL
- concentration at 5 min ([8]; male, C57BL, mouse, plasma, PO): 468 ng/mL
- concentration at 15 min ([8]; male, C57BL, mouse, plasma, PO): 912 ng/mL
- concentration at 30 min ([8]; male, C57BL, mouse, plasma, PO): 461 ng/mL
- concentration at 60 min ([8]; male, C57BL, mouse, plasma, PO): 437 ng/mL
- concentration at 120 min ([8]; male, C57BL, mouse, plasma, PO): 180 ng/mL
- concentration at 240 min ([8]; male, C57BL, mouse, plasma, PO): 51 ng/mL
- bioavailability ([8]; male, C57BL, plasma, po, mouse, read-out: Per oral bioavailability): 98%
- AUC(0-inf) ([8]; male, C57BL, IP): 437 ng·h/mL
- AUC(0-t) ([8]; male, C57BL, IP): 417 ng·h/mL
- half-life ([8]; male, C57BL, IP): 54.8 min
- k el ([8]; male, C57BL, IP): 0.00021 s⁻¹
- AUC(0-inf) ([8]; male, C57BL, IV): 1560 ng·h/mL
- AUC(0-t) ([8]; male, C57BL, IV): 1460 ng·h/mL
- half-life ([8]; male, C57BL, IV): 59.3 min
- k el ([8]; male, C57BL, IV): 0.000195 s⁻¹
- AUC(0-inf) ([8]; male, C57BL, PO): 1140 ng·h/mL
- AUC(0-t) ([8]; male, C57BL, PO): 1070 ng·h/mL
- half-life ([8]; male, C57BL, PO): 59.1 min
- k el ([8]; male, C57BL, PO): 0.000195 s⁻¹
- Cmax ([8]; IP): 377.7 ng/mL
- Cmax ([8]; IV): 934.3 ng/mL
- outward signs of toxicity or other side effects ([9]; 200 mg/kg daily for 5 days): did not show any outward signs of toxicity
- alterations in body weight ([9]; daily IP injections of 200 mg/kg for 5 days): No statistically significant alterations
- MTD at 5 days ([9]; male, C57BL, mouse, in vivo, intraperitoneal, 200 mg/kg, mice): > 200 mg/kg
- soft agar colony formation, PANC-1 [10]: reduction in large (Figure 2C–D, and G) and medium sized colonies
- ratio of nuclear versus cytoplasmic Gli1 [11]: did not alter the ratio
- total level of Gli1 in the cells [11]: the total level of Gli1 in the cells was reduced
